Data: US6737383B1, “Herbicidal oxadiazolidines” (priority 1999, dated 2004)

What was measured:
crabgrass = experiment: Test B pre/postemergence crabgrass; format: in vivo, Digitaria sanguinalis
Summary of the method: (§1)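 Test chemicals in a non-phytotoxic solvent mixture with surfactant were sprayed preemergence onto planted seeds and postemergence onto plants 2 to 18 cm tall (1- to 4-leaf stage). After twelve to sixteen days in a greenhouse, injury was visually rated against untreated controls from 0 (no effect) to 10 (complete control).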

rice = experiment: Test B flood test rice; format: in vivo, Oryza sativa; details: for Plant response rating, Rice (0 to 10 scale, 0 is no effect, 10 is complete control): Rate 62 g/ha, Pre-emergence; for Plant response rating, Rice (0 to 10 scale, 0 is no effect, 10 is complete control) / Rice plant response rating (0 to 10 scale, 0 is no effect, 10 is complete control): flood test species, visual evaluation after twelve to sixteen days; for Rice plant response rating (0 to 10 scale, 0 is no effect, 10 is complete control): Rate 125 g/ha, under heading Pre-emergence
Summary of the method: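 Each value is a visual injury score relative to controls, with 10 meaning complete control and 0 no effect. Evaluation took place twelve to sixteen days after the 2-leaf-stage plants were treated and kept in the greenhouse.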

corn = experiment: Test B pre/postemergence corn; format: in vivo, Zea mays
Summary of the method: as §1

velvetleaf = experiment: Test B pre/postemergence velvetleaf; format: in vivo, Abutilon theophrasti
Summary of the method: as §1

[1] = Postemergence, Rate 62 g/ha, scale 0 to 10, 0 is no effect, 10 is complete control
[2] = Postemergence, Rate 125 g/ha, scale of 0 to 10 where 0 is no effect and 10 is complete control
[3] = Postemergence, Rate 250 g/ha, scale of 0 to 10, 0 is no effect, 10 is complete control
[4] = Postemergence, Rate 500 g/ha, scale of 0 to 10 where 0 is no effect and 10 is complete control
[5] = Preemergence, Rate 62 g/ha, scale 0 to 10 (0 no effect, 10 complete control)
[6] = Preemergence, Rate 125 g/ha, scale of 0 to 10 where 0 is no effect and 10 is complete control
[7] = Preemergence, Rate 500 g/ha, scale of 0 to 10 where 0 is no effect and 10 is complete control
[8] = Rate 250 g/ha, Pre-emergence (flood test species), scale 0 to 10, 0 is no effect, 10 is complete control
[9] = Rate 500 g/ha, Pre-emergence section of Table B, 0 to 10 scale (0 no effect, 10 complete control)
[10] = Preemergence, Rate 250 g/ha, scale 0 to 10 (0 no effect, 10 complete control)
[11] = Preemergence, Rate 62 g/ha, scale of 0 to 10 where 0 is no effect and 10 is complete control
[12] = Rate 500 g/ha, Postemergence, scale 0 to 10, 0 is no effect, 10 is complete control

Row | SMILES | Plant response rating, Crabgrass (crabgrass; [1]) | Plant response rating, Crabgrass (crabgrass; [2]) | Crabgrass plant response rating (crabgrass; [3]) | Plant response rating, Crabgrass (crabgrass; [4]) | Crabgrass plant response rating (crabgrass; [6]) | Plant response rating, Crabgrass (crabgrass; [7]) | Plant response rating, Rice (0 to 10 scale, 0 is no effect, 10 is complete control) (rice) | Rice plant response rating (0 to 10 scale, 0 is no effect, 10 is complete control) (rice) | Rice plant response rating (rice; [8]) | Rice plant response rating (rice; [9]) | Plant response rating, Corn (corn; [1]) | Plant response rating, Corn (corn; [2]) | Corn plant response rating (corn; [3]) | Plant response rating, Corn (corn; [4]) | Corn plant response rating (corn; [6]) | Plant response rating, Corn (corn; [7]) | Plant response rating, Velvetleaf (velvetleaf; [1]) | Plant response rating, Velvetleaf (velvetleaf; [2]) | Velvetleaf plant response rating (velvetleaf; [6]) | Plant response rating, Velvetleaf (velvetleaf; [7]) | also measured
1 | CCC(C)n1c(=O)on(C(=O)N(c2ccccc2)C(C)C)c1=O (stereo not shown) [Compound 611] | 8 | 8 | 9 | 9 | 10 | 10 | 0 | 0 | 0 | 2 | 0 | 0 | 4 | 6 | 3 | 9 | 0 | 3 | 6 | 8 | Crabgrass plant response rating (crabgrass; [5]): 9; Corn plant response rating (corn; [5]): 2; Corn plant response rating (0 to 10 scale) (corn; Preemergence, Rate 250 g/ha): 9; Velvetleaf plant response rating (velvetleaf; [3]): 5; Plant response rating, Velvetleaf (velvetleaf; [4]): 5; Velvetleaf plant response rating (velvetleaf; [5]): 6
2 | CC(C)N(C(=O)n1oc(=O)n(CSC#N)c1=O)c1ccc(F)cc1 [Compound 618] | 0 | 0 | 0 | 0 | 0 | 2 | 0 | 0 | 0 | 0 | 0 | 0 | 0 | 0 | 0 | 0 | 0 | 0 | 0 | 0 | Crabgrass plant response rating (crabgrass; [5]): 0; Plant response rating, Crabgrass (crabgrass; [10]): 0; Corn plant response rating (corn; [5]): 0; Plant response rating, Corn (corn; [10]): 0; Velvetleaf plant response rating (velvetleaf; [3]): 0; Velvetleaf plant response rating (velvetleaf; [5]): 0; Plant response rating, Velvetleaf (velvetleaf; [10]): 0
3 | CC(C)N(C(=O)n1oc(=O)n(CNC(=O)c2ccccc2)c1=O)c1ccccc1 [Compound 620] | 1 | 2 |  | 3 | 0 | 6 | 0 | 0 | 0 | 0 | 0 | 0 | 0 | 0 | 0 | 0 | 0 | 0 | 0 | 0 | Crabgrass plant response rating (crabgrass; [5]): 0; Plant response rating, Crabgrass (crabgrass; [10]): 0; Corn plant response rating (corn; [5]): 0; Plant response rating, Corn (corn; [10]): 0; Velvetleaf plant response rating (velvetleaf; [3]): 0; Velvetleaf plant response rating (velvetleaf; [5]): 0; Plant response rating, Velvetleaf (velvetleaf; [10]): 0
4 | COCCn1c(=O)on(C(=O)N(c2ccc(F)cc2)C(C)C)c1=O [Compound 627] | 8 | 8 | 9 | 9 | 8 | 9 | 0 | 0 | 0 | 0 | 0 | 3 | 7 | 8 | 4 | 9 | 3 | 4 | 8 | 10 | Crabgrass plant response rating (crabgrass; [5]): 7; Plant response rating, Crabgrass (crabgrass; [10]): 9; Corn plant response rating (corn; [5]): 3; Plant response rating, Corn (corn; [10]): 6; Velvetleaf plant response rating (velvetleaf; [3]): 8; Velvetleaf plant response rating (velvetleaf; [5]): 7; Plant response rating, Velvetleaf (velvetleaf; [10]): 10
5 | C=C(Cl)Cn1c(=O)on(C(=O)N(c2ccc(F)cc2F)C(C)C)c1=O [Compound 634] | 0 | 3 | 7 | 9 | 8 | 10 | 0 | 0 | 0 | 0 | 0 | 0 | 0 | 0 | 0 | 0 | 0 | 0 | 0 | 6 | Crabgrass plant response rating (crabgrass; [11]): 7; Plant response rating, Crabgrass (crabgrass; [10]): 10; Corn plant response rating (corn; [11]): 0; Plant response rating, Corn (corn; [10]): 0; Velvetleaf plant response rating (velvetleaf; [3]): 3; Velvetleaf plant response rating (velvetleaf; [11]): 0; Plant response rating, Velvetleaf (velvetleaf; [10]): 4
6 | C=C(Cc1ccccc1)Cn1c(=O)on(C(=O)N(c2ccccc2)C(C)C)c1=O [Compound 650] | 0 |  | 7 |  | 8 | 9 | 0 | 0 | 0 | 0 | 0 |  | 2 |  | 0 | 0 | 0 |  | 0 | 0 | Crabgrass plant response rating (crabgrass; [2]): 1; Crabgrass plant response rating (crabgrass; [11]): 3; Plant response rating, Crabgrass (crabgrass; [10]): 9; Crabgrass plant response rating (crabgrass; [12]): 9; Corn plant response rating (corn; [2]): 0; Corn plant response rating (corn; [11]): 0; Plant response rating, Corn (corn; [10]): 0; Corn plant response rating (corn; [12]): 4; Velvetleaf plant response rating (velvetleaf; [2]): 0; Velvetleaf plant response rating (velvetleaf; [11]): 0; Plant response rating, Velvetleaf (velvetleaf; [10]): 0; Velvetleaf plant response rating (velvetleaf; [12]): 2
